# Reference: ChEMBL document CHEMBL1131881 (Bioorg Med Chem Lett, 1999)
# Target: Sodium-dependent dopamine transporter (Homo sapiens, UniProt Q01959)
# Experiment: Binding affinity towards dopamine transporter (DAT)
# Sequence of Sodium-dependent dopamine transporter (Q01959 whole entry): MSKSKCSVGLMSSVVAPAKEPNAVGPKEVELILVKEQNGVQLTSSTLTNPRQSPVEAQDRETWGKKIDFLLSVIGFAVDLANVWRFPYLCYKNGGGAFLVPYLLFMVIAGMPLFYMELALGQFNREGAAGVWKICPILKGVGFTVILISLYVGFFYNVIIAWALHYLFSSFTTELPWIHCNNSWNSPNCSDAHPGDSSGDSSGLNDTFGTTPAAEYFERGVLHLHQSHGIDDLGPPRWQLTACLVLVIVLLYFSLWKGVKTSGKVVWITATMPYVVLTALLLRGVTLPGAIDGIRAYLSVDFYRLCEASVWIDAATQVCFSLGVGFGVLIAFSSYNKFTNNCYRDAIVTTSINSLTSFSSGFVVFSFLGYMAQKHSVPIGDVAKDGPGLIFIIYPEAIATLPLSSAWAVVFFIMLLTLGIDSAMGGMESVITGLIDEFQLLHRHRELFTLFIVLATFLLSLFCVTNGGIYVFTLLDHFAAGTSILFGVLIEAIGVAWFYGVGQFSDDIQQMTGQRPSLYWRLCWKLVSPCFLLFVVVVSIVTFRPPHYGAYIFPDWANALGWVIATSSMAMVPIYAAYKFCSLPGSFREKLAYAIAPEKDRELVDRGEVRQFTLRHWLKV
compound,measurement,value
CCC[C@@H]1CN(C)CC[C@@H]1c1ccc(Cl)cc1,IC50,3 nM
